This note sets out measurements from ChEMBL document CHEMBL1777706, “Discovery of selective and orally available spiro-3-piperidyl ATP-competitive MK2 inhibitors” (Bioorg Med Chem Lett, 2011).

The test system of one test is THP-1. The test can be described thus: Antiinflammatory activity in human THP1 cells assessed as inhibition of LPS-induced TNFalpha production pretreated 30 mins before LPS challenge measured after 4 hrs. The class given is functional, cell-based.
Test [1] has as its target Serine/threonine-protein kinase pim-3 (Homo sapiens) (UniProt Q86V86). The test can be described thus: Inhibition of PIM3 at 1 uM.
In test [2] the target is Mitogen-activated protein kinase 1 (Homo sapiens) (UniProt P28482). Description: Inhibition of ERK2 at 1 uM.
Test [3] has as its target T1, MAP kinase-activated protein kinase 2 (Homo sapiens, UniProt P49137). Description: Inhibition of MK2 in LPS-stimulated human THP1 cells assessed as inhibition of Hsp27 phosphorylation pretreated 60 mins before LPS challenge measured after 10 mins. The class given is cell-based, THP-1.
The target in test [4] is Serine/threonine-protein kinase Chk2 (Homo sapiens) (UniProt O96017). Description: Inhibition of CHK2 at 1 uM.
Test [5] concerns the target Mitogen-activated protein kinase 3 (Homo sapiens) (UniProt P27361). The test can be described thus: Inhibition of ERK1 at 1 uM.
The target of test [6] is T1, MAP kinase-activated protein kinase 2. The test can be described thus: Inhibition of MK2 pretreated for 30 mins before fluorescein labeled substrate peptide addition measured after 2 hrs by IMAP assay.
Another test has as its system PBMC. Description: Antiinflammatory activity in human PBMC cells assessed as inhibition of LPS-induced TNFalpha production pretreated 30 mins before LPS challenge measured after 4 hrs by ELISA. The class given is functional, cell-based.
Test [7] can be described thus: Inhibition of p38.
For test [8], the target named is Serine/threonine-protein kinase pim-1 (Homo sapiens) (UniProt P11309). Description: Inhibition of PIM1 at 1 uM.
Test [9] has as its target T2, Serine/threonine-protein kinase 17A (Homo sapiens) (UniProt Q9UEE5).
T2 sequence (whole entry): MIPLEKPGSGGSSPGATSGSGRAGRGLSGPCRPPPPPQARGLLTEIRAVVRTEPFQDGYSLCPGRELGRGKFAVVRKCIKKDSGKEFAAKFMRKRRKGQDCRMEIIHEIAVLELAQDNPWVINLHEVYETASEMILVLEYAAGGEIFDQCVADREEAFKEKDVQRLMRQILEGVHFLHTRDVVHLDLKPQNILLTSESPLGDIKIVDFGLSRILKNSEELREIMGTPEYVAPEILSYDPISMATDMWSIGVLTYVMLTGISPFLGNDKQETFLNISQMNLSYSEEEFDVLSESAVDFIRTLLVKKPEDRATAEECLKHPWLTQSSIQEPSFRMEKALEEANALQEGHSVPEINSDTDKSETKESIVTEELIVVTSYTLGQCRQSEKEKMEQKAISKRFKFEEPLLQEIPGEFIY
Description: Inhibition of DRAK1 at 1 uM.

A word on the EC50: it is the midpoint of the concentration-response curve. In general, inhibition refers to the relative decrease from the control value, in per cent.

Active and inactive are the calls of the source. The calls are words filed in the database; no cut-off is given here. A value given as a limit tells only on which side of the number the result lay.

Serine/threonine-protein kinase pim-1 (Homo sapiens), sequence (P11309 whole entry, looked up): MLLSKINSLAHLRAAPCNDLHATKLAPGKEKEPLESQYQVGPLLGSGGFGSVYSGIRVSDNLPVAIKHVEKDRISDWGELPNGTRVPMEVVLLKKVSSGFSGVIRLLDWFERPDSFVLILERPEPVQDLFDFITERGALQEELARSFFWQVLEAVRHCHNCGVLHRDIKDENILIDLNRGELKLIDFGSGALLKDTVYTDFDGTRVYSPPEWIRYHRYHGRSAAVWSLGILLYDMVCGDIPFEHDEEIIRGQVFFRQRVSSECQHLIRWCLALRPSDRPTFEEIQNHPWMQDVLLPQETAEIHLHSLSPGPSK
Mitogen-activated protein kinase 3 (Homo sapiens), sequence (P27361 whole entry): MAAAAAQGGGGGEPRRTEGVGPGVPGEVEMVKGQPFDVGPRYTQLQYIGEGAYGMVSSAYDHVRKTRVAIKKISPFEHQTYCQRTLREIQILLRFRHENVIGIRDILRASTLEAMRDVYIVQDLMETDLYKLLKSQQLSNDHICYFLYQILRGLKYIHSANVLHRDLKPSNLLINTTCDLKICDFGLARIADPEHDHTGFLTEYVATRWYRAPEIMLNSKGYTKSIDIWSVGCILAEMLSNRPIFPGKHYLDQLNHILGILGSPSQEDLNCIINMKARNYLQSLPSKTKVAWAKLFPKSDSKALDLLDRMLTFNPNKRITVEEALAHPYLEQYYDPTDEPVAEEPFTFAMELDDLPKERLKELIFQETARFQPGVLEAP
T1 sequence (P49137 whole entry): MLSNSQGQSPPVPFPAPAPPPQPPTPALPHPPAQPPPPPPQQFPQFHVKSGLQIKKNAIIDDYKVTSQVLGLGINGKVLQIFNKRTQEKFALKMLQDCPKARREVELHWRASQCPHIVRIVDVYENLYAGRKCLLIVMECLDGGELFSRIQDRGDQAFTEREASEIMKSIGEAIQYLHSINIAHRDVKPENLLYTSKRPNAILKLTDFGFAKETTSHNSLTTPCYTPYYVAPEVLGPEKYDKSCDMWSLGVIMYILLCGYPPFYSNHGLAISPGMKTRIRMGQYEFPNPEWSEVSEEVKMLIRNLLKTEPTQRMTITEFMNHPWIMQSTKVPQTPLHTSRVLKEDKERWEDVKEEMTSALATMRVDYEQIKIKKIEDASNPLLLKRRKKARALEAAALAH
Serine/threonine-protein kinase Chk2 (Homo sapiens), sequence (O96017 whole entry): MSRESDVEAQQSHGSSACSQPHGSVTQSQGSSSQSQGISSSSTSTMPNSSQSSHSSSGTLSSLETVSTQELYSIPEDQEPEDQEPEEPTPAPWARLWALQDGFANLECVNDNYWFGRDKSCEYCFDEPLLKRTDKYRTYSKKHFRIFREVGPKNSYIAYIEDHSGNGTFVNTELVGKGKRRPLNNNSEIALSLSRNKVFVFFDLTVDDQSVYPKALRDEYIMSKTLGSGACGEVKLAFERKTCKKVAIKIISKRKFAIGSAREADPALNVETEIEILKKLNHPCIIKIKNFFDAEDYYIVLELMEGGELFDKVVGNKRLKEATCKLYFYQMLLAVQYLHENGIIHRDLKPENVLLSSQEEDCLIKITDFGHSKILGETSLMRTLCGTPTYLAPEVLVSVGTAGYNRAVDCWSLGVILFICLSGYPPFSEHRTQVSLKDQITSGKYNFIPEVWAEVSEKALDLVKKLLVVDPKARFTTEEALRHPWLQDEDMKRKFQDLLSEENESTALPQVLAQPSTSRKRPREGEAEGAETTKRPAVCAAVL
Mitogen-activated protein kinase 1 (Homo sapiens), sequence (P28482 whole entry, looked up): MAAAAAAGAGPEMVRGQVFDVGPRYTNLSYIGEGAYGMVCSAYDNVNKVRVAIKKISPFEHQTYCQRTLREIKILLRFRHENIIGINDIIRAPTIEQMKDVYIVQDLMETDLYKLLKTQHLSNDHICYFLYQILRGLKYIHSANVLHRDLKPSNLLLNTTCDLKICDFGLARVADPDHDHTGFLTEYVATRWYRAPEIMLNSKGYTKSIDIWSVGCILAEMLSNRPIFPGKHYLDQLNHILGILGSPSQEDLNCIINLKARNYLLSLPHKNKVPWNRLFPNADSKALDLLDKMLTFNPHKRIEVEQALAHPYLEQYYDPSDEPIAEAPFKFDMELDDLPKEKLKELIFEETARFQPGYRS

`COc1cncc(-c2nccc(-c3cc4c([nH]3)[C@]3(CCCNC3)CNC4=O)n2)c1`: the EC50 in the test on THP-1 came out at 2400 nM; in test [3], 1100 nM; in test [6] it was 9.3 nM; in the test with PBMC, 1300 nM. Moreover, the inhibition in test [1], in test [2], in test [4], in test [5], in test [8] and in test [9] was greater than 80% each time. The inhibition entry in [7] is “inactive”.

`O=C1NCC2(CCCNC2)c2[nH]c(-c3ccnc(-c4cccnc4)n3)cc21` (racemic): the concentration for a half-maximal effect (EC50) with THP-1 is 3000 nM; in [3], 2100 nM; in [6], 18 nM; with PBMC, 3300 nM. In addition, the inhibition in [1], in [2], in [4], in test [5], in test [8] and in [9] was greater than 80% each time. Besides, the inhibition entry in test [7] was “inactive”.

`COCCCOc1ccc(-c2nccc(-c3cc4c([nH]3)[C@]3(CCCNC3)CNC4=O)n2)cn1`: the EC50 in the test on THP-1 stood at 980 nM; in [3], 400 nM; in test [6] it was 6.9 nM; with PBMC, 430 nM. The inhibition in test [1], in [2], in test [4], in [5], in test [8] and in test [9] was greater than 80% throughout. Besides, in test [7], the inhibition entry was “inactive”.

With `O=C1NC[C@]2(CCCNC2)c2[nH]c(-c3ccnc(-c4ccc5c(c4)OCO5)n3)cc21`, the EC50 in the test with THP-1 came out at 8300 nM; in test [3], 7700 nM; in test [6] it was 91 nM; with PBMC, 3000 nM. For the same compound, the inhibition in test [1], in [2], in test [4], in test [5], in test [8] and in test [9] was greater than 80% in each case. Further, the inhibition result in test [7] is “inactive”.

Regarding `O=C1NCC2(CCNCC2)c2[nH]c(-c3ccnc(-c4ccccc4F)n3)cc21`, the EC50 in the test on THP-1 stood at 4200 nM; in test [6] it was 29 nM. For the same compound, the inhibition in [1], in test [2], in [4], in test [5], in test [8] and in test [9] was greater than 80% throughout. Also, the inhibition result in test [7] is “inactive”.

For the compound `COc1cncc(-c2nccc(-c3cc4c([nH]3)C3(CCNCC3)CNC4=O)n2)c1`, the EC50 with THP-1 was greater than 10000 nM; in test [6] it was 6.9 nM. For the same compound, the inhibition in test [1], in [2], in test [4], in [5], in [8] and in [9] was greater than 80% each time. In [7], the inhibition result is “inactive”.

In the case of `O=C1NCC2(CCNCC2)c2[nH]c(-c3ccnc(-c4cccc(C(F)(F)F)c4)n3)cc21`, the values for the EC50 (with THP-1; in [6]) were 4200 nM and 15 nM, respectively. In addition, the inhibition in test [1], in test [2], in test [4], in test [5], in test [8] and in [9] was greater than 80% each time. In addition, in [7], the inhibition entry was “inactive”.

`O=C1NCC2(CCOCC2)c2[nH]c(-c3ccnc(-c4ccc5c(c4)OCO5)n3)cc21`: the EC50 is greater than 10000 nM in the test with THP-1 and 724 nM in test [6]. For the same compound, the inhibition in test [1], in test [2], in test [4], in test [5], in test [8] and in [9] was greater than 80% in each case. Moreover, the inhibition entry in test [7] is “inactive”.
